Test results from EP2363475A1, “SCREENING METHOD, COMPOSITION CONTAINING SUBSTANCE SELECTED BY THE SCREENING METHOD, AND BINDING SUBSTANCE” (Redox Bioscience Inc., priority 2008, dated 2010).

Target: T1, bond between rTRX and rMIF (Homo sapiens, UniProt P10599)
T1 construct: His tag; made in house; host or cells: Escherichia coli
T1 sequence (P10599 1-105): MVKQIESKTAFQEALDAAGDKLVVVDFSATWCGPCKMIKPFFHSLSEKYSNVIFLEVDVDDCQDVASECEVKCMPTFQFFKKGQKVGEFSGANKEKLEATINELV
Assay: Screening by molecular interaction analysis (Biacore, SPR) for test substances that strengthen the bond between TRX and MIF
Format: binding
Conditions: test substance 500 µM mixed with rTRX 5 µM (Prostaglandin 12 also at 5 µM); FIGS. 7 to 11
Procedure: For several test substances, it was confirmed with a molecular interaction analysis whether they strengthened the bond between TRX and MIF or not.
rTRX; (same as the rTRX of Example 5) rMIF; (same as the rMIF of Example 5) BIAcore2000; (CM5 sensor chip)
N-acetylglucosamine Nitrosoglutathione Prostaglandin 12
rMIF was immobilized in a CM5 sensor chip as a ligand. The ligand was adjusted to have the rMIF concentration of less or equal to 200 nM by using running buffer, 10 mM HEPES (pH7.4), 150 mM NaCl, 3 mM EDTA and 0.005% Tween 20.
Then, N-acetylglucosamine, Nitrosoglutathione and Prostaglandin 12 were mixed with rTRX, respectively, to form three types of analytes.
In each analyte, the concentration of rTRX was 5 µM and the concentration of the test substance was 500 µM. For Prostaglandin 12, the analyte having its concentration of 5 µM was also analyzed.

For Prostaglandin 12, the “effect on the bond between rTRX and rMIF” value was “remarkably strengthen the bond between rTRX and rMIF”.
